pIC50: −log10 of the molar value. Entries after “also recorded” stand apart in the source; their conditions may differ.
Legend:
[1] = tested on: PDGFR; assay: PDGF-induced PDGFR autophosphorylation in NIH3T3 cells (Western blot); assay type: cell-based, mouse; settings: concentrations as high as 30 μM
Description: The inhibition of receptor autophosphorylation in viable cells was determined by anti-phosphotyrosine Western Blots. A431 and NIH3T3 cells were grown to confluence in 6-well plates, washed twice with PBS and exposed to serum-free medium for 18 h. They were subsequently treated with the compounds for 90 min and then with EGF (100 ng/ml) for 10 min (A431 cells), or with PDGF (100 ng/ml) for 10 min (NIH3T3 cells). They were thereafter washed with PBS and re-suspended in cold lysis buffer [50 mM Tris-HCl pH 7.5; 150 mM NaCl; 1% Nonidet P-40, 1 mM EDTA; 5 mM NaF; 1 mM Na3VO4; protease inhibitor tablet (Roche Biochemicals, Laval, Canada)]. The lysates were kept on ice for 30 min and collected by centrifugation at 10,000 rpm for 20 min at 4° C. Protein concentrations were determined against a standardized control using the Bio-Rad protein assay kit (Bio-Rad Laboratories, Hercules, Calif.). Equal amounts of protein (40 μg/mL) from each cell lysate were added to an 8% SDS-polyacrylamide gel electrophoresis (SDS-PAGE) and transferred to a polyvinylidene difluoride membrane (PVDF) (Millipore, Bedford, Mass.). Non-specific binding on the membrane was minimized with a blocking buffer containing non-fat dry milk (3%) in PBS. […] Band intensities were measured using the SynGene GeneTools software package (Cambridge, UK).

[2] = tested on: A431 cells; assay: Alkaline comet assay for DNA damage in A431 cells; settings: A431, 30 min or 2 h exposure
Description: A431 cells were exposed to drugs for 30 min or 2 h, and harvested with trypsin-EDTA. The cells were subsequently collected by centrifugation and re-suspended in PBS. The resulting cell suspension was diluted to approximately 10^6 cells, and mixed with agarose (1%) in PBS at 37° C. in a 1:10 dilution. The gels were cast on Gelbond strips (Mandel Scientific, Guelph, Canada) using gel casting chambers, as previously described (32), then immediately placed into a lysis buffer [2.5 M NaCl, 0.1 M tetra-sodium EDTA, 10 mM tris-base, 1% (w/v) N-lauryl sarcosine, 10% (v/v) DMSO and 1% (v/v) Triton X-100]. After being kept on ice for 30 min, the gels were gently rinsed with distilled water and then immersed in a second lysis buffer [2.5 M NaCl, 0.1 M tetra-sodium EDTA, 10 mM tris-base], containing 1 mg/ml proteinase K for 60 min at 37° C. Thereafter, the gels were rinsed with distilled water, incubated in alkaline electrophoresis buffer for 30 min at 37° C., and electrophoresed at 300 mA for 60 min. The gels were subsequently rinsed with distilled water and placed into 1 M ammonium acetate for 30 min. They were further soaked in 100% ethanol for 2 h, dried overnight and subsequently stained with SYBR Gold ( 1/10000 dilution of stock supplied from Molecular Probes, OR) for 20 min. For evaluation of comets, DNA damage was assessed using the Tail Moment parameter (i.e. the product of the distance between the barycentres of the head and the tail of the comet. A minimum of 50 cell comets were analyzed for each sample using ALKOMET v3.1 software, and values are an average of tail moments for the entire cell population.
Cell suspensions were diluted to approximately 10^6 cells, and mixed with agarose (1%) in PBS at 37° C. in a 1:10 dilution. The gels were cast on Gelbond strips (Mandel Scientific, Guelph, Canada) using gel casting chambers, as previously described (31), and then immediately placed in a lysis buffer [2.5 M NaCl, 0.1 M tetra-sodium EDTA, 10 mM Tris-base, 1% (w/v) N-lauryl sarcosine, 10% (v/v) DMSO, and 1% (v/v) Triton X-100, pH 10.0]. After being kept on ice for 30 min, the gels were gently rinsed with distilled water and immersed in a second lysis buffer (2.5 M NaCl, 0.1 M tetrasodium EDTA, 10 mM Tris-base) containing 1 mg/ml proteinase K for 60 min at 37° C. Thereafter, the gels were rinsed with distilled water, incubated in alkaline electrophoresis buffer for 30 min at 37° C., and electrophoresed at 300 mA for 60 min. The gels were subsequently rinsed with distilled water and placed in 1 M ammonium acetate for 30 min. They were soaked in 100% ethanol for 2 h, dried overnight, and subsequently stained with SYBR Gold ( 1/10000 dilution of stock supplied from Molecular Probes, Eugene, Oreg.) for 20 min. Comets were visualized at 330× magnification and DNA damage was quantitated using the Tail Moment parameter (i.e., the distance between the barycenter of the head and the tail of the comet multiplied by the percentage of DNA within the tail of the comet). A minimum of 50 cell comets were analyzed for each sample, using ALKOMET version 3.1 image analysis software, and values are averages of tail moments for the entire cell population per sample.

[3] = target: T1, EGFR (Homo sapiens, UniProt P00533); assay: Reverse EGFR autophosphorylation (reversibility) assay in A431 cells; assay type: cell-based; settings: A431, 30 μM
T1 sequence (P00533 25-1210): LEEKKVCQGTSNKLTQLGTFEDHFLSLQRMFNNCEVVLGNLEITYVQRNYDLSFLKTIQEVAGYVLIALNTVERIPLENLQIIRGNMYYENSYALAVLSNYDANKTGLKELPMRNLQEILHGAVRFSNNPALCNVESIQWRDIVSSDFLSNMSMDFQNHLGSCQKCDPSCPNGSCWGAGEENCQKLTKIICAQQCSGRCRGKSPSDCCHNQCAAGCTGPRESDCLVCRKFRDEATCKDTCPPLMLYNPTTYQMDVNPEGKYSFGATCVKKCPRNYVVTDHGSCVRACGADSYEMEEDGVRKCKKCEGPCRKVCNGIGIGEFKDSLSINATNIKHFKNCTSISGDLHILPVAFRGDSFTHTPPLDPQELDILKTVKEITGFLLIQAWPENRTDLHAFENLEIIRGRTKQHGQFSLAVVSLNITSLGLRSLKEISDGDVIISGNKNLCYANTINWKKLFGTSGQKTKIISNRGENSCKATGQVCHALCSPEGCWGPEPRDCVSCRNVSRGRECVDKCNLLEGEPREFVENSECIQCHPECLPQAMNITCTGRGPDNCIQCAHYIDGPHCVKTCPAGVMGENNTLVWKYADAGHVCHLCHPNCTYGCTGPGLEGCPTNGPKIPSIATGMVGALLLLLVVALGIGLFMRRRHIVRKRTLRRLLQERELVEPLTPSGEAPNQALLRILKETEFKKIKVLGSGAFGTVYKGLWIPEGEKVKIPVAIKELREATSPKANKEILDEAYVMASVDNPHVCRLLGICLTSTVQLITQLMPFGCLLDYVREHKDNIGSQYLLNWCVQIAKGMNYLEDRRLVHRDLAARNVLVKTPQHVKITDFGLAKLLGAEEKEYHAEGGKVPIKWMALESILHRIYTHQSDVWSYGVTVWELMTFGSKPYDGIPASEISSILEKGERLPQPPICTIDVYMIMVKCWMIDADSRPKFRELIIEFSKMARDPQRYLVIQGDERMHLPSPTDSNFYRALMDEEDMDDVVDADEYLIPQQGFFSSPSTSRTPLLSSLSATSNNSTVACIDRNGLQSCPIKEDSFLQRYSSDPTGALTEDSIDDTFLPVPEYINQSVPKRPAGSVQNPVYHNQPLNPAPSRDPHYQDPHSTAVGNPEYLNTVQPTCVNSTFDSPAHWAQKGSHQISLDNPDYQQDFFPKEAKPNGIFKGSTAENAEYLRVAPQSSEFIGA
Description: To test this hypothesis, the reversibility assay (40, 41) was used, according to which the cells are treated with the drug for 90 min after which the culture medium is repeatedly removed and replaced 3 times, followed by the measurement of EGFR autophosphorylation.
A431 cells were grown to confluence in 6-well plates and then incubated in serum-free medium for 18 h (41). Duplicate sets of cells were then treated with 30 μM of each compound for 90 min. One set of cells was then stimulated with EGF (100 ng/ml) for 10 min and extracts were made as described under the Western blotting procedure above. The other set of cells was washed free of each compound with warmed serum-free media and incubated for 2 h. Thereafter, the cells were washed, incubated for another 2 h, washed again, and then incubated for a further 4 h. This set of cells was then stimulated with EGF and extracts were prepared as for the first set.

[4] = target: T1, EGFR; assay: EGFR TK ELISA with PGT substrate (competitive binding at the ATP site); assay type: biochemical; parameters: purchased BIOMOL (Plymouth Meeting); also a gift from Pfizer Inc
Description: The ability of the combi-molecules to block EGFR TK activity was determined by an ELISA assay using poly(L-glutamic acid-L-tyrosine, 4:1) PGT as a substrate and commercially available EGFR.
Nunc MaxiSorp 96-well plates were incubated overnight at 37° C. with 100μL per well of 0.25 mg/mL PGT in PBS. Excess PGT was removed and the plates were washed 3 times with Tween 20 (0.1%) in PBS. […] The compound was added and phosphorylation initiated by the addition of ATP (20 μM). After 8 min at room temperature with constant shaking, the reaction was terminated by the aspiration of the reaction mixture and by rinsing the plate 4 times with wash buffer (Tween 20 (0.1%) in PBS). […] Antibody was removed by aspiration, and the plates washed 4 times with wash buffer. The signals were developed by the addition of 50 μL per well of TMB peroxidase substrate (Kierkegaard and Perry Laboratories, Gaithersberg, Md.).
This assay is similar to the one previously described. Nunc MaxiSorp 96-well plates were incubated overnight at 37° C. with 100 μl/well of 25 ng/ml PGT in PBS. Excess PGT was removed and the plates were washed three times with wash buffer (Tween 20 (0.1%) in PBS). […] The compound was added and phosphorylation initiated by the addition of ATP (20 μM). After 8 min at room temperature with constant shaking, the reaction was terminated by aspirating the mixture and by rinsing the plates four times with wash buffer Tween 20 (0.1%) in PBS. […] Antibody was removed by aspiration, and the plate washed four times with wash buffer. The signals were developed by the addition of 50 μl/well of 3,3′,5,5′-tetramethylbenzidine (TMB) peroxidase substrate (Kierkegaard and Perry Laboratories, Gaithersberg, Md., USA).

## CNN=Nc1ccc2ncnc(Nc3cccc(Cl)c3)c2c1 [BJ2000]
[1]
  effect on PDGF-induced PDGFR autophosphorylation: no effect
[2]
  DNA damage (comet tail moment): induced dose-dependent DNA damage; also recorded: induced significant DNA damage
[3]; 90 min
  EGF-dependent EGFR autophosphorylation immediately after drug exposure: completely suppressed
[3]; 8 h post-treatment in drug-free medium after repeated washouts
  EGFR autophosphorylation activity restored: 40%
[4]
  fold stronger affinity than SMA41: 2 fold
[4]; ELISA, PGT substrate, purified EGFR, ATP 20 μM, 8 min, read-out: IC50, inhibition of EGFR TK (competitive binding at ATP site)
  pIC50: 7.00
[4]; purified EGFR, ATP site
  fold greater EGFR binding affinity than metabolite FD105: 2 fold

Source: US7572798B2, “Combi-molecules having signal transduction inhibitory properties and DNA damaging properties” (McGill University, priority 2001, dated 2009)
